In PMC11061419, “Identification of novel small molecule inhibitors of twin arginine translocation (Tat) pathway and their effect on the control of Campylobacter jejuni in chickens” (Frontiers in Microbiology, 2024):
Converted amounts (≈) assume the structure as drawn.

How the values were obtained:
C. jejuni 81–176 = test: Copper sulfate sensitivity dose–response assay in vitro (MIC/MBC); assay type: cell-based, Campylobacter jejuni; details: for MBC / MIC: Campylobacter jejuni, 0.5 mM CuSO4, head displaced; for MBC: read-out: MBC, C. jejuni (Table S5); for MIC: read-out: MIC, C. jejuni (Table S4); for C. jejuni 81–176 in vitro MBC: minimal bactericidal concentration in presence of 0.5 mM CuSO4; for C. jejuni 81–176 in vitro MIC: minimal bacteriostatic concentration in presence of 0.5 mM CuSO4
Procedure: (§1) In total, 19 SMs were two-fold serially diluted to obtain a final SM concentration ranging from 6.25 to 0.012 μg/mL. C. jejuni 81–176 was then treated with a determined concentration of SM, as described in the copper sensitivity assay. […] The lowest bactericidal SM concentration was considered the MBC (no increase in OD600 over time and no viable cells were recovered on agar plate after challenge) (N = 3 replicates per SM). […] However, these SMs were two-fold serially diluted to obtain a final SM concentration ranging from 5 μg to 0.0625 μg for testing (N = two independent experiments with four technical replicate for each SM).

C. coli ATCC33559 = test: as above; assay type: cell-based; details: Campylobacter coli; for MIC: ATCC33559, read-out: MIC, C. coli (Table S4); for MBC: ATCC33559, 0.5 mM CuSO4, read-out: MBC, C. coli (Table S5)
Procedure: (§2) Campylobacter jejuni 81–176 was the primary model strain used for the selection of the potential Tat-dependent inhibitors by high-throughput screening. C. jejuni 81–176 is resistant to 0.5 and 1 mM CuSO4 (Supplementary Figure S1). C. jejuni 81–176 tatC knockout mutant (C. jejuni ΔtatC) was used to confirm the Tat-dependent inhibitory effect of the selected SM. C. jejuni ΔtatC is susceptible to 0.5 mM and higher of CuSO4 ([Rajashekara et al., 2009]). The specificity of the Tat-dependent inhibitors was also tested on 11 additional Campylobacter strains (C. coli ATCC33559 and 10 other C. jejuni strains isolated from chickens) and 7 commensal/beneficial bacteria (Supplementary Table S1). The […] (Au-13, Au-20, Au-38, Au-39, Au-47, Au-50, Au-24, Au-32, Au-44, and Au-45) were selected based on their single nucleotide polymorphism (SNP)-type and percent of prevalence in chickens ([Merchant-Patel et al., 2008]; [Kumar et al., 2016]). Additional details about the bacterial strains are shown in Supplementary Table S1.
as §1

C. jejuni Au-20 = test: as above; assay type: cell-based; details: Campylobacter jejuni; for MIC: AU20, read-out: MIC, Au-20 (Table S4); for MBC: AU20, 0.5 mM CuSO4, read-out: MBC, Au-20 (Table S5)
Procedure: as §2, §1

C. jejuni Au-24 = test: as above; assay type: cell-based; details: Campylobacter jejuni; for MIC: AU24, read-out: MIC, Au-24 (Table S4); for MBC: AU24, 0.5 mM CuSO4, read-out: MBC, Au-24 (Table S5)
Procedure: as §2, §1

C. jejuni Au-32 = test: as above; assay type: cell-based; details: Campylobacter jejuni; for MIC: AU32, read-out: MIC, Au-32 (Table S4); for MBC: AU32, 0.5 mM CuSO4, read-out: MBC, Au-32 (Table S5)
Procedure: as §2, §1

C. jejuni Au-38 = test: as above; assay type: cell-based; details: Campylobacter jejuni; for MIC: AU38, read-out: MIC, Au-38 (Table S4); for MBC: AU38, 0.5 mM CuSO4, read-out: MBC, Au-38 (Table S5)
Procedure: as §2, §1

C. jejuni Au-44 = test: as above; assay type: cell-based; details: Campylobacter jejuni; for MIC: AU44, read-out: MIC, Au-44 (Table S4); for MBC: AU44, 0.5 mM CuSO4, read-out: MBC, Au-44 (Table S5)
Procedure: as §2, §1

C. jejuni Au-45 = test: as above; assay type: cell-based; details: Campylobacter jejuni; for MIC: AU45, read-out: MIC, Au-45 (Table S4); for MBC: AU45, 0.5 mM CuSO4, read-out: MBC, Au-45 (Table S5)
Procedure: as §2, §1

C. jejuni Au-47 = test: as above; assay type: cell-based; details: Campylobacter jejuni; for MIC: AU47, read-out: MIC, Au-47 (Table S4); for MBC: AU47, 0.5 mM CuSO4, read-out: MBC, Au-47 (Table S5)
Procedure: as §2, §1

C. jejuni Au-50 = test: as above; assay type: cell-based; details: Campylobacter jejuni; for MIC: AU50, read-out: MIC, Au-50 (Table S4); for MBC: AU50, 0.5 mM CuSO4, read-out: MBC, Au-50 (Table S5)
Procedure: as §2, §1

[1] = tested on: Campylobacter spp. (12 strains); test: Activity spectrum against Campylobacter strains at 6.25 μg/mL with 0.5 mM CuSO4; assay type: cell-based, Campylobacter jejuni, Campylobacter coli; details: 6.25 μg/mL SM
[2] = tested on: Commensal/beneficial gut bacteria (n = 7); test: Activity spectrum against commensal/beneficial gut bacteria at 6.25 μg/mL; assay type: cell-based; details: 6.25 μg/mL SM; for Commensal/beneficial gut bacteria inhibited at 6.25 μg/mL (species): Ef Enterococcus faecalis, Lb Levilactobacillus brevis, LGG Lacticaseibacillus rhamnosus GG
Procedure: A similar experiment was performed with seven commensal/beneficial gut bacteria to determine species specificity of these SMs. In brief, an overnight suspension was normalized at 0.05 OD600 using the appropriate medium and challenged with 6.25 μg/mL of SM. Details about the strains and their growing conditions are shown in Supplementary Table S1. Medium alone and 1% DMSO were used as controls (N = 3 replicates per SM).

[3] = tested on: intracellular C. jejuni 81–176 in Caco-2 cells; test: Copper sulfate sensitivity dose–response assay in infected Caco-2 colon epithelial cells; assay type: cell-based, Campylobacter jejuni; details: 0.5 mM CuSO4; for SM concentration that completely cleared intracellular C. jejuni 81–176 in Caco-2 cells (MBC in Caco2 cells): 24 h treatment; for C. jejuni 81–176 MBC in Caco2 cells: infected Caco-2 cells, 24 h
Procedure: The intracellular reduction in C. jejuni in the presence of a given SM (T1-T8) and 0.5 mM CuSO4 were evaluated using Caco-2 cells, as previously described ([Kumar et al., 2016]; [Deblais et al., 2019]). In brief, cells were infected for 2 h using a multiplicity of infection (MOI) of 100. Infected cells were treated with SM at a final concentration ranging between 5 and 0.315 μg/mL and incubated at 37°C for 24 h in a humidified 5% CO2 incubator. Following incubation, cells were washed once with 1X PBS, lysed with 0.1% Triton-100X, serially 10-fold diluted in 1X PBS, and plated on MH agar plate. Plates were incubated in microaerophilic conditions at 42°C for 24 h, to determine the intracellular survival. Cells not infected and not treated and cells infected and treated with 1% DMSO were used as controls (N = two independent experiments with four technical replicate for each SM).

Caco-2 cells = test: Cytotoxicity on Caco-2 colon epithelial cells (LDH assay); assay type: cell-based; details: 5 μg SM /ml, 24 h
Procedure: Cytotoxicity of the eight SMs (T1-T8) was tested on Caco-2 cells at 5, 25, and 50 μg/mL, as previously described ([Kumar et al., 2016]; [Deblais et al., 2019]). In brief, a 96-well plate seeded with approximately 1.4 × 10^5 Caco-2 cells/well in MEM medium was challenged with a final SM concentration of 5, 25, and 50 μg/mL. After 24 h of incubation at 37°C in a humidified 5% CO2 incubator, cytotoxic effects were determined using the PierceTM Lactate Dehydrogenase Cytotoxicity Assay Kit (Thermo Fisher Scientific). Cell death was measured based on the production of formazan (chromogenic dye), which can be read at OD570. Equal concentrations (5, 25, and 50 μg/mL) of kanamycin or chloramphenicol, 1% DMSO, and 10X lysis buffer were used as control. The cytotoxicity level was calculated according to the manufacturer’s instructions (N = two independent experiments with three technical replicate for each SM).

## CC(C)(C)NC(=S)NNc1c(Cl)cncc1Cl [T2]
C. jejuni 81–176
  MBC: 0.62 µg/mL (≈ 2.11 µM)
  MIC: 0.01 µg/mL (≈ 0.0341 µM)
  C. jejuni 81–176 in vitro MBC: 0.62 µg/mL
  C. jejuni 81–176 in vitro MIC: 0.01 µg/mL
C. coli ATCC33559
  MIC: 0.62 µg/mL (≈ 2.11 µM)
  MBC: 1.24 µg/mL (≈ 4.23 µM)
C. jejuni Au-20
  MIC: 0.62 µg/mL (≈ 2.11 µM)
  MBC: 1.24 µg/mL (≈ 4.23 µM)
C. jejuni Au-24
  MIC: 0.31 µg/mL (≈ 1.06 µM)
  MBC: 0.62 µg/mL (≈ 2.11 µM)
C. jejuni Au-32
  MIC: 0.62 µg/mL (≈ 2.11 µM)
  MBC: 1.24 µg/mL (≈ 4.23 µM)
C. jejuni Au-38
  MIC: 0.62 µg/mL (≈ 2.11 µM)
  MBC: 1.24 µg/mL (≈ 4.23 µM)
C. jejuni Au-44
  MIC: 0.31 µg/mL (≈ 1.06 µM)
  MBC: 0.62 µg/mL (≈ 2.11 µM)
C. jejuni Au-45
  MIC: 0.62 µg/mL (≈ 2.11 µM)
  MBC: 1.24 µg/mL (≈ 4.23 µM)
C. jejuni Au-47
  MIC: 0.31 µg/mL (≈ 1.06 µM)
  MBC: 0.62 µg/mL (≈ 2.11 µM)
C. jejuni Au-50
  MIC: 0.31 µg/mL (≈ 1.06 µM)
  MBC: 0.62 µg/mL (≈ 2.11 µM)
[1]
  Growth inhibition at 6.25 μg/mL, Campylobacter spp. (strains inhibited/tested): 12/12
[2]
  Growth inhibition at 6.25 μg/mL, Commensal/beneficial gut bacteria (strains inhibited/tested): 2/7
  Commensal/beneficial gut bacteria inhibited at 6.25 μg/mL (species): Lb and Ef
[3]
  SM concentration that completely cleared intracellular C. jejuni 81–176 in Caco-2 cells (MBC in Caco2 cells): < 5 µg/mL
  C. jejuni 81–176 MBC in Caco2 cells: 1.25 µg/mL
Caco-2 cells
  cytotoxicity index on Caco-2 cells: < 20%

## CSc1ccccc1-c1nnc(NC(=O)Cc2ccccc2)o1 [T7]
C. jejuni 81–176
  MBC: 0.16 µg/mL (≈ 0.492 µM)
  MIC: 0.02 µg/mL (≈ 0.0615 µM)
  C. jejuni 81–176 in vitro MBC: 0.16 µg/mL
  C. jejuni 81–176 in vitro MIC: 0.02 µg/mL
C. coli ATCC33559
  MIC: 0.16 µg/mL (≈ 0.492 µM)
  MBC: 0.32 µg/mL (≈ 0.983 µM)
C. jejuni Au-20
  MIC: 0.16 µg/mL (≈ 0.492 µM)
  MBC: 0.32 µg/mL (≈ 0.983 µM)
C. jejuni Au-24
  MIC: 0.08 µg/mL (≈ 0.246 µM)
  MBC: 0.16 µg/mL (≈ 0.492 µM)
C. jejuni Au-32
  MIC: 0.08 µg/mL (≈ 0.246 µM)
  MBC: 0.16 µg/mL (≈ 0.492 µM)
C. jejuni Au-38
  MIC: 0.16 µg/mL (≈ 0.492 µM)
  MBC: 0.32 µg/mL (≈ 0.983 µM)
C. jejuni Au-44
  MIC: 0.31 µg/mL (≈ 0.953 µM)
  MBC: 1.24 µg/mL (≈ 3.81 µM)
C. jejuni Au-45
  MIC: 0.16 µg/mL (≈ 0.492 µM)
  MBC: 0.32 µg/mL (≈ 0.983 µM)
C. jejuni Au-47
  MIC: 0.31 µg/mL (≈ 0.953 µM)
  MBC: 0.62 µg/mL (≈ 1.91 µM)
C. jejuni Au-50
  MIC: 0.08 µg/mL (≈ 0.246 µM)
  MBC: 0.32 µg/mL (≈ 0.983 µM)
[1]
  Growth inhibition at 6.25 μg/mL, Campylobacter spp. (strains inhibited/tested): 12/12
[2]
  Growth inhibition at 6.25 μg/mL, Commensal/beneficial gut bacteria (strains inhibited/tested): 1/7
  Commensal/beneficial gut bacteria inhibited at 6.25 μg/mL (species): LGG
[3]
  SM concentration that completely cleared intracellular C. jejuni 81–176 in Caco-2 cells (MBC in Caco2 cells): < 5 µg/mL
  C. jejuni 81–176 MBC in Caco2 cells: 2.5 µg/mL
Caco-2 cells
  cytotoxicity index on Caco-2 cells: < 20%
